The source of these data is patent US8044069B2, “Compounds as calcium channel blockers” (Abbott Laboratories, priority 2008, dated 2011).

This test concerns the target human Cav2.2 (Homo sapiens, UniProt Q00975). Nature of the test: Assessment of calcium channel activity using FLIPR (Ca2+ influx in IMR32 cells). The format is cell-based. The following applies: IMR32 cells endogenously expressing human Cav2.2; 60 minute pre-incubation; 2 μM nifedipine; depolarized with 80 mM KCl, 5 mM CaCl2. The procedure: (i) In Vitro Methods—Assessment of Calcium Channel Activity Using FLIPR:
The IMR32 cells were maintained in MEM media containing 10% (v/v) FBS, 1% (v/v) antibiotic/antimitotic, 1% (v/v) sodium pyruvate and 1% (v/v) MEM NEAA. Following dissociation in 0.05% (v/v) trypsin/EDTA, cells were seeded into black 1×96-well plates (Corning Cellbind) at a density of 1-1.2×10^5 cells/well and incubated in the maintenance media above for 48 hours at 37° C. […] After dye loading and a subsequent 60 minute pre-incubation with compounds (full log dilutions from 10 μM to 0.1 nM) in the presence of 1.3 mM CaCl2 and 2 μM nifedipine to block endogenous L-type channels, the external Ca^2+ concentration was increased to 5 mM CaCl2 and the cells concomitantly depolarized with 80 mM KCl to assay channel activity. To determine the IC50 values, the percent inhibition of the compound at each concentration was determined relative to the activity in the absence of inhibitor, and data was fitted using non-linear regression sigmoidal dose response curve analysis with GraphPad Prism®.

Chain of human Cav2.2 (Q00975 whole entry): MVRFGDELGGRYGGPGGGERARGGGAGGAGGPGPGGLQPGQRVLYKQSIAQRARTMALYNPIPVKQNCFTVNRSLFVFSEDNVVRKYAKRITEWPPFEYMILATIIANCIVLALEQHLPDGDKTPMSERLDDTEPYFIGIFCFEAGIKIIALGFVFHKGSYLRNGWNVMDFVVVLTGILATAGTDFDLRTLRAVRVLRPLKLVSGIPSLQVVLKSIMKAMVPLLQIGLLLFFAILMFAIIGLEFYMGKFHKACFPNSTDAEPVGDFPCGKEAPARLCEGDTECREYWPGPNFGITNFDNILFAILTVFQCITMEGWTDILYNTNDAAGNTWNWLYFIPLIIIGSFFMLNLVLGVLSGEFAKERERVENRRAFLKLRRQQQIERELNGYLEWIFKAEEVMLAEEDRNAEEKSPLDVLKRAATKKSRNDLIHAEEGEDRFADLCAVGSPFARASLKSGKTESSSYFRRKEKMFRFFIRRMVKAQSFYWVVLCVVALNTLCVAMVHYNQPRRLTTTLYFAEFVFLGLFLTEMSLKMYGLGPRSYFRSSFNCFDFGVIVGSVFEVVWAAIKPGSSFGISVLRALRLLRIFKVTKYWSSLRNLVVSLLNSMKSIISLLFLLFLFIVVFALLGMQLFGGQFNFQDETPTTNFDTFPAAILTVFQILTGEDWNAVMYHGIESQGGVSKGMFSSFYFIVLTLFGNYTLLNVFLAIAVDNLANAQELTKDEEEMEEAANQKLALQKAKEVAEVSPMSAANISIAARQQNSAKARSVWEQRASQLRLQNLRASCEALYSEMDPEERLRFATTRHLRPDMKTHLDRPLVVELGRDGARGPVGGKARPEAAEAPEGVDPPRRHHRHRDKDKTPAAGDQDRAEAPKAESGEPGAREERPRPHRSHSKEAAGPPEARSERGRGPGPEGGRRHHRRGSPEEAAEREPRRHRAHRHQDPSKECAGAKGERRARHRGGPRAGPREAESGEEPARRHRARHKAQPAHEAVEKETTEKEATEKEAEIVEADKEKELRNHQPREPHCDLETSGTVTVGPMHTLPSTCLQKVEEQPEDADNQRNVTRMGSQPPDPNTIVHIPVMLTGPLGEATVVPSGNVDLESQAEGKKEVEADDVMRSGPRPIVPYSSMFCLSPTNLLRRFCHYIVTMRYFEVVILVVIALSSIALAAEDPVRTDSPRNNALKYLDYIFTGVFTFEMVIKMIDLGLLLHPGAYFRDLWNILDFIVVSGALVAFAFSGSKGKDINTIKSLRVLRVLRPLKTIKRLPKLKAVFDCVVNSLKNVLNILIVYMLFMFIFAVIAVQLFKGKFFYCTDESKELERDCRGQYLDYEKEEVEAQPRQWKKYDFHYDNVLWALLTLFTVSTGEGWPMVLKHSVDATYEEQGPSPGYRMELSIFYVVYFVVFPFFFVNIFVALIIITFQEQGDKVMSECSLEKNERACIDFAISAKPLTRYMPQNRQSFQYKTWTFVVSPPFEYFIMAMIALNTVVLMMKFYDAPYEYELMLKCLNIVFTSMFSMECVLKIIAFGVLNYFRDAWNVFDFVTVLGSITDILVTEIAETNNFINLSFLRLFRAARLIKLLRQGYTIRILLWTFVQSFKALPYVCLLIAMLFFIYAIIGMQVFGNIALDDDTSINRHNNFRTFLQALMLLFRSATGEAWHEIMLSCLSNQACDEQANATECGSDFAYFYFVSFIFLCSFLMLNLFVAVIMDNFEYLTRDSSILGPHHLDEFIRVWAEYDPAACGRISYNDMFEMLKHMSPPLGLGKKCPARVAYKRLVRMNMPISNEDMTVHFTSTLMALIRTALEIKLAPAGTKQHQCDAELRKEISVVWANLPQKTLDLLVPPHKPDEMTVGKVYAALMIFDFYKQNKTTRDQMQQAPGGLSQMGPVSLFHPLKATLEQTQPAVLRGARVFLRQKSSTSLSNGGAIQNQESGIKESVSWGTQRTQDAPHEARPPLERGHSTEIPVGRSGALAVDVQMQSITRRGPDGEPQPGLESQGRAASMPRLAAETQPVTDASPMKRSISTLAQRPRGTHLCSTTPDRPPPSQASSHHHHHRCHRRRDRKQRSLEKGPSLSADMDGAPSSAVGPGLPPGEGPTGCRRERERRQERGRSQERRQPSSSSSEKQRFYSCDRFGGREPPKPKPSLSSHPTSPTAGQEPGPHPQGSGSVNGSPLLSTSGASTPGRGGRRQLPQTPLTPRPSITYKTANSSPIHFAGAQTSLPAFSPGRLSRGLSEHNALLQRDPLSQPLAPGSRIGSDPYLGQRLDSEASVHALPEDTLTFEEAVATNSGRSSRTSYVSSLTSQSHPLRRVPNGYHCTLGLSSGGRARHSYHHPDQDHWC
Chain of human Cav2.2 (P54289 25-951 partner limits assumed): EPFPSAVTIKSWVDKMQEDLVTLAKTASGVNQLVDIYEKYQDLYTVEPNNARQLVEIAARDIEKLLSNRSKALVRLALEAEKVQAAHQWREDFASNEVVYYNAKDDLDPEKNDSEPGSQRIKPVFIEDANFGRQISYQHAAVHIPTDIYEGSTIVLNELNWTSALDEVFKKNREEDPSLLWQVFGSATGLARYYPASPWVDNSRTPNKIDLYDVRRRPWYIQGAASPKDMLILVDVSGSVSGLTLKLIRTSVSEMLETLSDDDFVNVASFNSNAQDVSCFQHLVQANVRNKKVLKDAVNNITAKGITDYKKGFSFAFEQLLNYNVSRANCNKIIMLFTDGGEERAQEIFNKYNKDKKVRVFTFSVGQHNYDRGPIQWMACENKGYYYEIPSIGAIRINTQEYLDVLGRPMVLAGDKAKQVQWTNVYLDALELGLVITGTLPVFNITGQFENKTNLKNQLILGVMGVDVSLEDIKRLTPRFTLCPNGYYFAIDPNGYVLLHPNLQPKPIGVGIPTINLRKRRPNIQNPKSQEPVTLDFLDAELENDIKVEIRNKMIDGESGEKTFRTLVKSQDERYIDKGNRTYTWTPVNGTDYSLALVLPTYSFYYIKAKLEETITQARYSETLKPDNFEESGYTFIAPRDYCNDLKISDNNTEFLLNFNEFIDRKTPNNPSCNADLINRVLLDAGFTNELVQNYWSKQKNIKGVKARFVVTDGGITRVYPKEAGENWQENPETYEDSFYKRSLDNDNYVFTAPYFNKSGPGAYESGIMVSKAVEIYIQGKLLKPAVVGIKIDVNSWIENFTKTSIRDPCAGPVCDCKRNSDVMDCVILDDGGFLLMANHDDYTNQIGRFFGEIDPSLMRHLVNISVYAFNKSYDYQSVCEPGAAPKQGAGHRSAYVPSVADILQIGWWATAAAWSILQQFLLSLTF
Chain of human Cav2.2 (P54289 952-1103 partner limits assumed): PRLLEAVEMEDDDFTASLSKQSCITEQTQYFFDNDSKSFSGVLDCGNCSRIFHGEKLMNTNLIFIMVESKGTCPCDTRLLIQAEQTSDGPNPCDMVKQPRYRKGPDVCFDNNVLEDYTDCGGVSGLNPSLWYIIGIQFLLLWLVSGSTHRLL
Chain of human Cav2.2 (P54284 whole entry partner): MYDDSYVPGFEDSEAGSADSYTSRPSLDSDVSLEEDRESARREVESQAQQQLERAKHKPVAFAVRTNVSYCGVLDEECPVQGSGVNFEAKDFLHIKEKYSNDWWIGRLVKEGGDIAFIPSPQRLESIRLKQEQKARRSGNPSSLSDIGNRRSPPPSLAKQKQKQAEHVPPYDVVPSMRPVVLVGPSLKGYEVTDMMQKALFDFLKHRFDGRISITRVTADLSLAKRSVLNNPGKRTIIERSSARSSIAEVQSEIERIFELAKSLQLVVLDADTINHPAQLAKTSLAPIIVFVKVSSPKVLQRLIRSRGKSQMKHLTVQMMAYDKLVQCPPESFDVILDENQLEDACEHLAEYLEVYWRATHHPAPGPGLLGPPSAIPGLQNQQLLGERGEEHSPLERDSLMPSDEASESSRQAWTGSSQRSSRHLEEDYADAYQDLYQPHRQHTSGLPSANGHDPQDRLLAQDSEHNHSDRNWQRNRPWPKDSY

With `COc1cc(CN2CCN(CCN3CCC(c4ccc(F)cc4)(c4ccc(F)cc4)C3=O)CC2)cc(OC)c1` [Example 63, 1-{2-[4-(3,5-dimethoxybenzyl)piperazin-1-yl]ethyl}-3,3-bis(4-fluorophenyl)pyrrolidin-2-one], the IC50 (as a rule, the midpoint of a concentration-inhibition curve) amounted to 1.65 µM.

For `O=C(CN1CCC(c2ccc(F)cc2)(c2ccc(F)cc2)C1=O)Nc1ccc(C(F)(F)F)cn1` [Example 217, 2-[3,3-bis(4-fluorophenyl)-2-oxopyrrolidin-1-yl]-N-[5-(trifluoromethyl)pyridin-2-yl]acetamide], the IC50 stood at 2.62 µM.

Turning to `Cc1ccc(-c2noc(CN3CCC(c4ccccc4)(c4ccccc4)C3=O)n2)cc1` [Example 195, 1-{[3-(4-methylphenyl)-1,2,4-oxadiazol-5-yl]methyl}-3,3-diphenylpyrrolidin-2-one], the IC50 came out at 3.57 µM.

Consider `O=C(CN1CCC(c2ccc(F)cc2Cl)C1=O)N1Cc2ccc(F)cc2C1` (stereo not drawn) [Example 268, 3-(2-chloro-4-fluorophenyl)-1-[2-(5-fluoro-1,3-dihydro-2H-isoindol-2-yl)-2-oxoethyl]pyrrolidin-2-one], for which the IC50 was determined as 11.4 µM.

As for `O=C(CN1CCCC(c2ccccc2)(c2ccccc2)C1=O)NC1CN(Cc2cccc(C(F)(F)F)c2)C1` [Example 180, 2-(2-oxo-3,3-diphenylpiperidin-1-yl)-N-{1-[3-(trifluoromethyl)benzyl]azetidin-3-yl}acetamide], the half-maximal inhibitory concentration (IC50) is 0.94 µM.

As for `O=C(CN1CCC(c2ccccc2)(c2ccccc2)C1=O)N1CCC[C@H]2CN(C(c3ccccc3)c3ccccc3)C[C@H]21` [Example 50, 1-{2-[(4aS,7aS)-6-benzhydryloctahydro-1H-pyrrolo[3,4-b]pyridin-1-yl]-2-oxoethyl}-3,3-diphenylpyrrolidin-2-one], the IC50 was found to be 2.62 µM.

In the case of `O=C(CN1CCC(c2ccc(F)cc2)(c2ccc(F)cc2)C1=O)N1CCc2ccccc2C1` [Example 258, 1-[2-(3,4-dihydroisoquinolin-2(1H)-yl)-2-oxoethyl]-3,3-bis(4-fluorophenyl)pyrrolidin-2-one], the IC50 came to 4.45 µM.

As for `O=C1N(CCN2CCN(c3ncccn3)CC2)CCCC1(c1ccc(F)cc1)c1ccc(F)cc1` [Example 136, 3,3-bis(4-fluorophenyl)-1-[2-(4-pyrimidin-2-ylpiperazin-1-yl)ethyl]piperidin-2-one], the IC50 stood at 3.32 µM.

`O=C1N(Cc2nc(CCc3ccc(Cl)cc3)no2)CCCC1(c1ccccc1)c1ccccc1` [Example 213, 1-({3-[2-(4-chlorophenyl)ethyl]-1,2,4-oxadiazol-5-yl}methyl)-3,3-diphenylpiperidin-2-one]: the IC50 is 1.6 µM.

As for `COc1ccc(C2(c3ccc(OC)cc3)CCN(CCNC(=O)c3ccccc3)C2=O)cc1` [Example 112, N-{2-[3,3-bis(4-methoxyphenyl)-2-oxopyrrolidin-1-yl]ethyl}benzamide], the IC50 turned out to be 10 µM.

On to `COc1cccc(CCN(C)CCCN2CCCC(c3cccc(OC)c3)(C(C)C)C2=O)c1` (stereo not drawn) [Example 128, 3-isopropyl-3-(3-methoxyphenyl)-1-{3-[[2-(3-methoxyphenyl)ethyl](methyl)amino]propyl}piperidin-2-one], for which the IC50 is 1.12 µM.

Take `O=C(CN1CCCC(c2ccccc2)(c2ccccc2)C1=O)N1CCOC(c2ccccc2)(c2ccccc2)C1` [Example 69, 1-[2-(2,2-diphenylmorpholin-4-yl)-2-oxoethyl]-3,3-diphenylpiperidin-2-one]: the IC50 was 6.05 µM.

Take `CN(CCN1CCC(c2ccc(F)cc2)(c2ccc(F)cc2)C1=O)CC(O)COc1cccc2ncccc12` (stereo not drawn) [Example 108, 3,3-bis(4-fluorophenyl)-1-{2-[[2-hydroxy-3-(quinolin-5-yloxy)propyl](methyl)amino]ethyl}pyrrolidin-2-one]: the IC50 worked out at 1 µM.

As to `O=C(CN1CCCC(c2ccc(F)cc2)(c2ccc(F)cc2)C1=O)N1CCN(Cc2cccc(C(F)(F)F)c2)CC1` [Example 175, 3,3-bis(4-fluorophenyl)-1-(2-oxo-2-{4-[3-(trifluoromethyl)benzyl]piperazin-1-yl}ethyl)piperidin-2-one], the IC50 is 1.25 µM.

With `COc1ccc(C2(c3ccc(OC)cc3)CCCN(CCN(C)CCCOc3cc(OC)cc(OC)c3)C2=O)cc1` [Example 115, 1-{2-[[3-(3,5-dimethoxyphenoxy)propyl](methyl)amino]ethyl}-3,3-bis(4-methoxyphenyl)piperidin-2-one], the half-maximal inhibitory concentration (IC50) came to 3.12 µM.

As to `O=C1N(Cc2nc(-c3ccc(C(F)(F)F)nc3)no2)CCC1(c1ccc(F)cc1)c1ccc(F)cc1` [Example 212, 3,3-bis(4-fluorophenyl)-1-({3-[6-(trifluoromethyl)pyridin-3-yl]-1,2,4-oxadiazol-5-yl}methyl)pyrrolidin-2-one], the concentration for half-maximal inhibition (IC50) came out at 2.63 µM.

Consider `COc1ccc(C2(c3ccc(OC)cc3)CCCN(CCN(C)CCc3cccc(OC)c3)C2=O)cc1` [Example 124, 3,3-bis(4-methoxyphenyl)-1-{2-[[2-(3-methoxyphenyl)ethyl](methyl)amino]ethyl}piperidin-2-one], for which the half-inhibitory concentration (IC50) is 1.9 µM.

Turning to `O=C(CN1CCCC(c2ccccc2)(c2ccccc2)C1=O)N1CCCC(c2ccccc2)(c2ccccc2)C1` [Example 71, 1-[2-(3,3-diphenylpiperidin-1-yl)-2-oxoethyl]-3,3-diphenylpiperidin-2-one], the IC50 stood at 3.41 µM.

In the case of `O=C(CN1CCC(c2ccccc2)(c2ccccc2)C1=O)NCC(c1ccccc1)c1ccccc1` [Example 15, N-(2,2-diphenylethyl)-2-(2-oxo-3,3-diphenylpyrrolidin-1-yl)acetamide], the IC50 is 0.87 µM.

Take `COc1ccccc1N1CCN(CCCN2CCCC(c3ccc(F)cc3)(c3ccc(F)cc3)C2=O)CC1` [Example 138, 3,3-bis(4-fluorophenyl)-1-{3-[4-(2-methoxyphenyl)piperazin-1-yl]propyl}piperidin-2-one]: the IC50 came to 1.42 µM.

Take `CN(C(=O)CN1CCCC(c2ccccc2)(c2ccccc2)C1=O)C1CCN(Cc2cccc(C(F)(F)F)c2)CC1` [Example 197, N-methyl-2-(2-oxo-3,3-diphenylpiperidin-1-yl)-N-{1-[3-(trifluoromethyl)benzyl]piperidin-4-yl}acetamide]: the IC50 came out at 1 µM.

Take `O=C1N(Cc2nc(-c3ccc(OC(F)(F)F)cc3)no2)CCCC1(c1ccccc1)c1ccccc1` [Example 199, 3,3-diphenyl-1-({3-[4-(trifluoromethoxy)phenyl]-1,2,4-oxadiazol-5-yl}methyl)piperidin-2-one]: the concentration for half-maximal inhibition (IC50) was found to be 5.98 µM.

For the compound `O=C(CN1CCCC(c2ccccc2)(c2ccccc2)C1=O)N[C@H]1CCN(Cc2cccc(C(F)(F)F)c2)C1` [Example 185, 2-(2-oxo-3,3-diphenylpiperidin-1-yl)-N-{(3S)-1-[3-(trifluoromethyl)benzyl]pyrrolidin-3-yl}acetamide], the IC50 was 1.15 µM.

For `O=C(CN1CCC(c2ccccc2)(c2ccccc2)C1=O)NC1CCCc2ccccc21` (stereo not drawn) [Example 27, 2-(2-oxo-3,3-diphenylpyrrolidin-1-yl)-N-1,2,3,4-tetrahydronaphthalen-1-ylacetamide], the IC50 is 3.03 µM.

As for `O=C(CN1CCC(c2ccc(F)cc2)C1=O)N1CCc2ccccc2C1` (stereo not drawn) [Example 253, 1-[2-(3,4-dihydroisoquinolin-2(1H)-yl)-2-oxoethyl]-3-(4-fluorophenyl)pyrrolidin-2-one], the IC50 is 10.6 µM.

Regarding `O=C(CN1CCCC(c2ccccc2)(c2ccccc2)C1=O)N1CCC(O)(c2ccc(Cl)c(C(F)(F)F)c2)CC1` [Example 250, 1-(2-{4-[4-chloro-3-(trifluoromethyl)phenyl]-4-hydroxypiperidin-1-yl}-2-oxoethyl)-3,3-diphenylpiperidin-2-one], the IC50 turned out to be 4.13 µM.

As for `COc1ccc(CC2(C)CN(C(=O)CN3CCC(c4ccccc4)(c4ccccc4)C3=O)CCN2)cc1OC` (stereo not drawn) [Example 167, 1-{2-[3-(3,4-dimethoxybenzyl)-3-methylpiperazin-1-yl]-2-oxoethyl}-3,3-diphenylpyrrolidin-2-one], the IC50 stood at 2.02 µM.

Consider `O=C1N(CCCN2CCN(c3cccc(C(F)(F)F)c3)CC2)CCCC1(c1ccc(F)cc1)c1ccc(F)cc1` [Example 142, 3,3-bis(4-fluorophenyl)-1-(3-{4-[3-(trifluoromethyl)phenyl]piperazin-1-yl}propyl)piperidin-2-one], for which the IC50 stood at 1.23 µM.

With `O=C(CN1CCCC(c2ccc(F)cc2)(c2ccc(F)cc2)C1=O)N1CCC(c2ccccc2)(c2ccccc2)CC1` [Example 173, 1-[2-(4,4-diphenylpiperidin-1-yl)-2-oxoethyl]-3,3-bis(4-fluorophenyl)piperidin-2-one], the IC50 came to 3.88 µM.

On to “N-(1-benzhydryl-3-methylpyrrolidin-3-yl)-2-(2-oxo-3,3-diphenylpiperidin-1-yl)acetamide [Example 86]”, for which the IC50 amounted to 2.2 µM.

For `C[C@@H]1CN(C(c2ccccc2)c2ccccc2)CCN1C(=O)CN1CCC(c2ccccc2)(c2ccccc2)C1=O` [Example 49, 1-{2-[(2R)-4-benzhydryl-2-methylpiperazin-1-yl]-2-oxoethyl}-3,3-diphenylpyrrolidin-2-one], the IC50 worked out at 2.76 µM.

For `COc1ccc(C2(c3ccc(OC)cc3)CCCN(CCCN3CCN(Cc4cc(OC)cc(OC)c4)CC3)C2=O)cc1` [Example 131, 1-{3-[4-(3,5-dimethoxybenzyl)piperazin-1-yl]propyl}-3,3-bis(4-methoxyphenyl)piperidin-2-one], the IC50 stood at 2.3 µM.

For `O=C(CN1CCCC(c2ccccc2)C1=O)Nc1ccc(Cl)cn1` (stereo not drawn) [Example 192, N-(5-chloropyridin-2-yl)-2-(2-oxo-3-phenylpiperidin-1-yl)acetamide], the IC50 stood at 12 µM.
